Measurements taken from patent US10221177B2 (HYDRA BIOSCIENCES, INC., priority 2014, dated 2019).

Biological target: human TRPA1 (Homo sapiens (Human), UniProt O75762)
Experiment: In vitro inhibition of human TRPA1, whole cell patch configuration
Format: cell-based
Details: current activation 10 μM AITC, tested concentrations 320 pM to 3.2 μM, read-out: hTRPA1 IC50
Method in brief: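 Whole-cell patch clamp, bath 150 mM NaCl, 10 mM HEPES, 1 mM EGTA, 3 mM MgCl2, pH 7.4 (sometimes 2 mM CaCl2, 1 mM MgCl2). Currents recorded continuously at −60 mV or by 400 ms ramps from −40 mV holding every 4 s; inward/outward currents taken at −80/80 mV, with controlled-temperature focal perfusion.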

Chain of human TRPA1 (O75762 whole entry): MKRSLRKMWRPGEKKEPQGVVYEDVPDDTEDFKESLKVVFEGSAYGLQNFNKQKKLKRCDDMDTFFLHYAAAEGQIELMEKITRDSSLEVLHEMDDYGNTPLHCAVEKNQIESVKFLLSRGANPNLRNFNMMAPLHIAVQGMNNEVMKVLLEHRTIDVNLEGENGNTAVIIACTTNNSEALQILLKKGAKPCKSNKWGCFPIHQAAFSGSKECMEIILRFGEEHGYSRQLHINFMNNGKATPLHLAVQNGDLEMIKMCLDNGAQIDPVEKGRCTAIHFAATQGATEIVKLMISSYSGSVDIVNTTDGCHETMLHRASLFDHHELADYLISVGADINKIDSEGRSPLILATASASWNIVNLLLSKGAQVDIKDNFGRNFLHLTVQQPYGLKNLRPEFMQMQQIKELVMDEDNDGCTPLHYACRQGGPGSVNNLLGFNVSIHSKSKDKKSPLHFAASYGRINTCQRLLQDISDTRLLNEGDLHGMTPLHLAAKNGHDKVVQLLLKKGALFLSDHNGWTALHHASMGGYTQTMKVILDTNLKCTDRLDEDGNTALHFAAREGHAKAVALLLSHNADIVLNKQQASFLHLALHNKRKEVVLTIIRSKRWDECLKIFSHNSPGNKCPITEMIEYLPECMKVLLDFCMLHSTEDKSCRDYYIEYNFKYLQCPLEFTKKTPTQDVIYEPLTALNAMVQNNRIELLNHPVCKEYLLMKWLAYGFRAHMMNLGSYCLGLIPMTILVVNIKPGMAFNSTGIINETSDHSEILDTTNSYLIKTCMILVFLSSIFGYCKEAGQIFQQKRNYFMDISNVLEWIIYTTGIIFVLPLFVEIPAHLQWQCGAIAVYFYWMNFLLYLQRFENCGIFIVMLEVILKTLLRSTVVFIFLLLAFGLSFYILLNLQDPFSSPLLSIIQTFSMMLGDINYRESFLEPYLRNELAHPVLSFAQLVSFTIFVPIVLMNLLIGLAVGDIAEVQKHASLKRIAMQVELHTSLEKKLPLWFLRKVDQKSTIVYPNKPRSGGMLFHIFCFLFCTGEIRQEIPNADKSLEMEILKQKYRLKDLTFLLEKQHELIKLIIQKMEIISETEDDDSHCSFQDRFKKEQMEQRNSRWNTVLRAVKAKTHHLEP

SMILES | IC50
Cc1cc(Cn2c(=O)c3c(ncn3CC(=O)Nc3cccc(N4CCC(C(F)(F)F)CC4)n3)n(C)c2=O)no1 [Compound 202, 2-(3-methyl-1-((5-methylisoxazol-3-yl)methyl)-2,6-dioxo-2,3-dihydro-1H-purin-7(6H)-yl)-N-(6-(4-(trifluoromethyl)piperidin-1-yl)pyridin-2-yl)acetamide] | 26 nM
C[C@@H](C(=O)Nc1cncc(-c2cnc(N3CC4C(C3)C4(F)F)nc2)n1)n1cnc2c1c(=O)n(CC#N)c(=O)n2C (stereo partly drawn) [Compound 60, (2S)-2-(1-(cyanomethyl)-3-methyl-2,6-dioxo-2,3-dihydro-1H-purin-7(6H)-yl)-N-(6-(2-(6,6-difluoro-3-azabicyclo[3.1.0]hexan-3-yl)pyrimidin-5-yl)pyrazin-2-yl)propanamide] | 7 nM
Cc1ncc(-c2cccc(NC(=O)Cn3cnc4c3c(=O)n(Cc3ccon3)c(=O)n4C)n2)cc1C(F)(F)F [Compound 239, 2-(1-(isoxazol-3-ylmethyl)-3-methyl-2,6-dioxo-2,3-dihydro-1H-purin-7(6H)-yl)-N-(6′-methyl-5′-(trifluoromethyl)-[2,3′-bipyridin]-6-yl)acetamide] | 3 nM
Cc1noc(Cn2c(=O)c3c(ncn3[C@@H](C)C(=O)Nc3cccc(-c4cnc(C(F)(F)F)c(C)c4)n3)n(C)c2=O)n1 [Compound 131, (S)-2-(3-methyl-1-((3-methyl-1,2,4-oxadiazol-5-yl)methyl)-2,6-dioxo-2,3-dihydro-1H-purin-7(6H)-yl)-N-(5′-methyl-6′-(trifluoromethyl)-[2,3′-bipyridin]-6-yl)propanamide] | 6 nM
CC(=O)Cn1c(=O)c2c(ncn2CC(=O)Nc2csc(-c3cnc(C(F)(F)F)c(C)c3)n2)n(C)c1=O [Compound 216, 2-(3-methyl-2,6-dioxo-1-(2-oxopropyl)-2,3-dihydro-1H-purin-7(6H)-yl)-N-(2-(5-methyl-6-(trifluoromethyl)pyridin-3-yl)thiazol-4-yl)acetamide] | 16 nM
Cc1nc(Cn2c(=O)c3c(ncn3[C@@H](C)C(=O)Nc3cncc(-c4cnc(C)c(C(F)(F)F)c4)n3)n(C)c2=O)no1 [Compound 170, (S)-2-(3-methyl-1-((5-methyl-1,2,4-oxadiazol-3-yl)methyl)-2,6-dioxo-2,3-dihydro-1H-purin-7(6H)-yl)-N-(6-(6-methyl-5-(trifluoromethyl)pyridin-3-yl)pyrazin-2-yl)propanamide] | 27 nM
CC(=O)Cn1c(=O)c2c(ncn2[C@@H](C)C(=O)Nc2cccc(-c3ccc(N4CC5C(C4)C5(F)F)nc3)n2)n(C)c1=O (some centres unmarked) [Compound 65] | 8 nM
CNC(=O)Cn1c(=O)c2c(ncn2[C@@H](C)C(=O)Nc2cccc(-c3cnc(C(F)(F)F)nc3)n2)n(C)c1=O [Compound 87, (S)-2-(3-methyl-1-(2-(methylamino)-2-oxoethyl)-2,6-dioxo-2,3-dihydro-1H-purin-7(6H)-yl)-N-(6-(2-(trifluoromethyl)pyrimidin-5-yl)pyridin-2-yl)propanamide] | 258 nM
CC#CCn1c(=O)c2c(ncn2[C@@H](C)C(=O)Nc2csc(-c3ccc(N4CC5C(C4)C5(F)F)nc3)n2)n(C)c1=O (stereo partly drawn) [Compound 262, (2S)-2-(1-(but-2-yn-1-yl)-3-methyl-2,6-dioxo-2,3-dihydro-1H-purin-7(6H)-yl)-N-(2-(6-(6,6-difluoro-3-azabicyclo[3.1.0]hexan-3-yl)pyridin-3-yl)thiazol-4-yl)propanamide] | 1 nM
Cc1cc(Cn2c(=O)c3c(ncn3[C@@H](C)C(=O)Nc3cccc(-c4noc(C(F)(F)F)n4)n3)n(C)c2=O)no1 [Compound 78] | 86 nM
CCC(=O)Cn1c(=O)c2c(ncn2[C@@H](C)C(=O)Nc2cncc(-c3cnc(N4CC5CC5C4)nc3)n2)n(C)c1=O (stereo partly drawn) [Compound 13, (2S)—N-(6-(2-(3-azabicyclo[3.1.0]hexan-3-yl)pyrimidin-5-yl)pyrazin-2-yl)-2-(3-methyl-2,6-dioxo-1-(2-oxobutyl)-2,3-dihydro-1H-purin-7(6H)-yl)propanamide] | 8 nM
Cn1c(=O)n(Cc2ccccn2)c(=O)c2c1ncn2CC(=O)Nc1cccc(-c2ccc(Cl)cc2)n1 [Compound 188, N-(6-(4-chlorophenyl)pyridin-2-yl)-2-(3-methyl-2,6-dioxo-1-(pyridin-2-ylmethyl)-2,3-dihydro-1H-purin-7(6H)-yl)acetamide] | 33 nM
CC#CCn1c(=O)c2c(ncn2[C@@H](C)C(=O)Nc2csc(-c3cnc(N4CCC[C@H]4C(F)(F)F)nc3)n2)n(C)c1=O [Compound 268, (S)-2-(1-(but-2-ynyl)-3-methyl-2,6-dioxo-2,3-dihydro-1H-purin-7(6H)-yl)-N-(2-(2-((S)-2-(trifluoromethyl)pyrrolidin-1-yl)pyrimidin-5-yl)thiazol-4-yl)propanamide] | 1 nM
Cc1nc(Cn2c(=O)c3c(ncn3[C@@H](C)C(=O)Nc3csc(-c4cnc(C)c(C(F)(F)F)c4)n3)n(C)c2=O)no1 [Compound 163, (S)-2-(3-methyl-1-((5-methyl-1,2,4-oxadiazol-3-yl)methyl)-2,6-dioxo-2,3-dihydro-1H-purin-7(6H)-yl)-N-(2-(6-methyl-5-(trifluoromethyl)pyridin-3-yl)thiazol-4-yl)propanamide] | 2 nM
Cc1cc(-c2nc(NC(=O)[C@H](C)n3cnc4c3c(=O)n(CC(F)(F)F)c(=O)n4C)cs2)cnc1C(F)(F)F [Compound 161, (S)-2-(3-methyl-2,6-dioxo-1-(2,2,2-trifluoroethyl)-2,3-dihydro-1H-purin-7(6H)-yl)-N-(2-(5-methyl-6-(trifluoromethyl)pyridin-3-yl)thiazol-4-yl)propanamide] | 219 nM
CC(C(=O)Nc1ccnc(-c2cnc(C(F)(F)F)nc2)n1)n1cnc2c1c(=O)n(Cc1ccccn1)c(=O)n2C (centres unmarked) [Compound 141, 2-(3-methyl-2,6-dioxo-1-(pyridin-2-ylmethyl)-2,3-dihydro-1H-purin-7(6H)-yl)-N-(2′(trifluoromethyl)-2,5′-bipyrimidin-4-yl)propanamide] | 80 nM
Cc1cc(Cn2c(=O)c3c(ncn3[C@@H](C)C(=O)Nc3csc(-c4cnc(C(F)(F)F)c(C)c4)n3)n(C)c2=O)no1 [Compound 94, (S)-2-(3-methyl-1-((5-methylisoxazol-3-yl)methyl)-2,6-dioxo-2,3-dihydro-1H-purin-7(6H)-yl)-N-(2-(5-methyl-6-(trifluoromethyl)pyridin-3-yl)thiazol-4-yl)propanamide] | 3 nM
Cc1cc(Cn2c(=O)c3c(ncn3[C@@H](C)C(=O)Nc3cccc(-c4cncc(C(F)(F)F)c4)n3)n(C)c2=O)no1 [Compound 156, (S)-2-(3-methyl-1-((5-methylisoxazol-3-yl)methyl)-2,6-dioxo-2,3-dihydro-1H-purin-7(6H)-yl)-N-(5′-(trifluoromethyl)-2,3′-bipyridin-6-yl)propanamide] | 3 nM
C[C@@H](C(=O)Nc1cncc(-c2ccc(C(F)(F)F)nc2)n1)n1cnc2c1c(=O)n(Cc1ccon1)c(=O)n2C [Compound 119, (S)-2-(1-(isoxazol-3-ylmethyl)-3-methyl-2,6-dioxo-2,3-dihydro-1H-purin-7(6H)-yl)-N-(6-(6-(trifluoromethyl)pyridin-3-yl)pyrazin-2-yl)propanamide] | 28 nM
CCC(=O)Cn1c(=O)c2c(ncn2[C@@H](C)C(=O)Nc2csc(-c3ccc(N4CC5C(C4)C5(F)F)nc3)n2)n(C)c1=O (stereo partly drawn) [Compound 80, (2S)—N-(2-(6-(6,6-difluoro-3-azabicyclo[3.1.0]hexan-3-yl)pyridin-3-yl)thiazol-4-yl)-2-(3-methyl-2,6-dioxo-1-(2-oxobutyl)-2,3-dihydro-1H-purin-7(6H)-yl)propanamide] | 1 nM
Cc1cc(Cn2c(=O)c3c(ncn3[C@@H](C)C(=O)Nc3ccnc(-c4cnc(C(F)(F)F)c(C)c4)n3)n(C)c2=O)no1 [Compound 85, (S)-2-(3-methyl-1-((5-methylisoxazol-3-yl)methyl)-2,6-dioxo-2,3-dihydro-1H-purin-7(6H)-yl)-N-(2-(5-methyl-6-(trifluoromethyl)pyridin-3-yl)pyrimidin-4-yl)propanamide] | 3 nM
Cc1cc(Cn2c(=O)c3c(ncn3[C@@H](C)C(=O)Nc3ccnc(-c4cnc(C)c(C(F)(F)F)c4)n3)n(C)c2=O)no1 [Compound 110, (S)-2-(3-methyl-1-((5-methylisoxazol-3-yl)methyl)-2,6-dioxo-2,3-dihydro-1H-purin-7(6H)-yl)-N-(2-(6-methyl-5-(trifluoromethyl)pyridin-3-yl)pyrimidin-4-yl)propanamide] | 1 nM
CC(=O)Cn1c(=O)c2c(ncn2[C@@H](C)C(=O)Nc2cncc(-c3ccc(N4CC5C(C4)C5(F)F)nc3)n2)n(C)c1=O (stereo partly drawn) [Compound 76, (2S)—N-(6-(6-(6,6-difluoro-3-azabicyclo[3.1.0]hexan-3-yl)pyridin-3-yl)pyrazin-2-yl)-2-(3-methyl-2,6-dioxo-1-(2-oxopropyl)-2,3-dihydro-1H-purin-7(6H)-yl)propanamide] | 10 nM
Cc1nc(Cn2c(=O)c3c(ncn3CC(=O)Nc3csc(-c4cnc(C)c(C(F)(F)F)c4)n3)n(C)c2=O)no1 [Compound 248, 2-(3-methyl-1-((5-methyl-1,2,4-oxadiazol-3-yl)methyl)-2,6-dioxo-2,3-dihydro-1H-purin-7(6H)-yl)-N-(2-(6-methyl-5-(trifluoromethyl)pyridin-3-yl)thiazol-4-yl)acetamide] | 4 nM
CC(=O)Cn1c(=O)c2c(ncn2CC(=O)Nc2cccc(-c3ccc(F)c(F)c3)n2)n(C)c1=O [Compound 182, N-(6-(3,4-difluorophenyl)pyridin-2-yl)-2-(3-methyl-2,6-dioxo-1-(2-oxopropyl)-1,2,3,6-tetrahydropurin-7-yl)acetamide] | 42 nM
CCC(=O)Cn1c(=O)c2c(ncn2[C@@H](C)C(=O)Nc2csc(-c3cnc(C)c(F)c3)n2)n(C)c1=O [Compound 101, (S)—N-(2-(5-fluoro-6-methylpyridin-3-yl)thiazol-4-yl)-2-(3-methyl-2,6-dioxo-1-(2-oxobutyl)-2,3-dihydro-1H-purin-7(6H)-yl)propanamide] | 12 nM
